Experimental data as given in ChEMBL document CHEMBL4002576, “Tetrahydropyranodiquinolin-8-amines as new, non hepatotoxic, antioxidant, and acetylcholinesterase inhibitors for Alzheimer's disease therapy” (Eur J Med Chem, 2017).
The source made the active and inactive calls. The calls are words filed in the database; no cut-off is given here.

Experiments:
[1] = molecular target: Acetylcholinesterase (Electrophorus electricus, UniProt O42275)
Description: Inhibition of Electrophorus electricus AChE using acetylthiocholine iodide as substrate pretreated for 10 mins followed by substrate addition measured after 15 mins by spectrophotometry based Ellman method

[2] = molecular target: Cholinesterase (Equus caballus, UniProt P81908); experiment: Inhibition of horse serum BuChE using butyrylthiocholine as substrate pretreated for 10 mins followed by substrate addition measured after 15 mins by spectrophotometry based Ellman method
Sequence of Cholinesterase (P81908 whole entry): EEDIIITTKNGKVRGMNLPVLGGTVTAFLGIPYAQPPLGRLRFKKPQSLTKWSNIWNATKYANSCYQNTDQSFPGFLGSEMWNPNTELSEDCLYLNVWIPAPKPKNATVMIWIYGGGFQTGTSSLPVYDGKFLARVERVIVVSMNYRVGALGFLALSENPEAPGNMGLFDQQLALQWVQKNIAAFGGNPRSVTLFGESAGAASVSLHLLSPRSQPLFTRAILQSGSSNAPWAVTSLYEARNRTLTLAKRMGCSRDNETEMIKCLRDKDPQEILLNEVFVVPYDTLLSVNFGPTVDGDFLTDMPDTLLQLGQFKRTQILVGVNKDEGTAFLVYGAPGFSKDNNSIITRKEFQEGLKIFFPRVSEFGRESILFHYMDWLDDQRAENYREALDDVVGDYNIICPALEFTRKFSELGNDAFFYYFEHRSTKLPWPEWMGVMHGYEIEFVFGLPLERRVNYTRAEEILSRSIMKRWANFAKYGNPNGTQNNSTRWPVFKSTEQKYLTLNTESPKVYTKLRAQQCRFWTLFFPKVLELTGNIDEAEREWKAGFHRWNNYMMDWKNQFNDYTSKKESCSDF

[3] = molecular target: T1, Acetylcholinesterase (Homo sapiens, UniProt P22303); experiment: Inhibition of recombinant human AChE expressed in HEK293 cells using acetylthiocholine iodide as substrate pretreated for 5 mins followed by substrate addition measured after 5 mins by spectrophotometry based Ellman method
T1 sequence (P22303 whole entry): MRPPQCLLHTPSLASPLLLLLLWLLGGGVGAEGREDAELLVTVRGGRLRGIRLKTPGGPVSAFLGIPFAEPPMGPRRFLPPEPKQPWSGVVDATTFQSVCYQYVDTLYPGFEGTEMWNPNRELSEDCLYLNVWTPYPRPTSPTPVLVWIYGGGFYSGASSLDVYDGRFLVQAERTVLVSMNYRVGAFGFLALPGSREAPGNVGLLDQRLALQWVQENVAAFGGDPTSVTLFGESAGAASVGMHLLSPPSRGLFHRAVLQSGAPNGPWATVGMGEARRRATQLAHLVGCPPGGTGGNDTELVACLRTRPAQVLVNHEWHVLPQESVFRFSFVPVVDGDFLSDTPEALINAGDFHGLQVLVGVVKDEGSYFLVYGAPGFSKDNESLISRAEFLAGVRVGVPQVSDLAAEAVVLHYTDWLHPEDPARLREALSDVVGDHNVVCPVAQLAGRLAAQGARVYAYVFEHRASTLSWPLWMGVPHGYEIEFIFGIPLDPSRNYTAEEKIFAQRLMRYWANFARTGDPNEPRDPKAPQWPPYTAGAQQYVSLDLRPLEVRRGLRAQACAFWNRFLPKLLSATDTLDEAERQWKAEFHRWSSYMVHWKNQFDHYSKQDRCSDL

[4] = Metal chelating activity assessed as compound-Fe2+ complex formation at 10 uM in presence of FeSO4 after 20 hrs by UV-visible spectrophotometric analysis; assay type: functional
[5] = in vitro; settings: human, primary hepatocytes
Description: Cytotoxicity against human primary hepatocytes assessed as cell viability at 30 uM measured after 2 hrs by trypan blue assay relative to control

[6] = in vitro; settings: human, primary hepatocytes; remark: listed apart in the source
Description: Cytotoxicity against human primary hepatocytes assessed as cell viability at 3 uM measured after 2 hrs by trypan blue assay relative to control

[7] = Metal chelating activity assessed as compound-Cu2+ complex formation at 10 uM in presence of CuSO4 after 60 mins by UV-visible spectrophotometric analysis; assay type: functional
[8] = in vitro; settings: human, primary hepatocytes; remark: listed apart in the source
Description: Cytotoxicity against human primary hepatocytes assessed as cell viability at 0.1 uM measured after 2 hrs by trypan blue assay relative to control

[9] = Metal chelating activity assessed as compound-Fe2+ complex formation at 10 uM in presence of FeSO4 after 60 mins by UV-visible spectrophotometric analysis; assay type: functional
[10] = in vitro; settings: human, primary hepatocytes; remark: listed apart in the source
Description: Cytotoxicity against human primary hepatocytes assessed as cell viability at 10 uM measured after 2 hrs by trypan blue assay relative to control

[11] = in vitro; settings: human, primary hepatocytes; remark: listed apart in the source
Description: Cytotoxicity against human primary hepatocytes assessed as cell viability at 1 uM measured after 2 hrs by trypan blue assay relative to control

[12] = Metal chelating activity assessed as compound-Cu2+ complex formation at 10 uM in presence of CuSO4 after 20 hrs by UV-visible spectrophotometric analysis; assay type: functional
[13] = physchem; settings: PAMPA, pH 7.4
Description: Permeability of the compound at 100 uM at pH 7.4 measured after 6 hrs by PAMPA

[14] = in vitro; settings: human, primary hepatocytes; remark: listed apart in the source
Description: Cytotoxicity against human primary hepatocytes assessed as cell viability at 100 uM measured after 2 hrs by trypan blue assay relative to control

[15] = molecular target: T1, Acetylcholinesterase; experiment: Non-competitive inhibition of recombinant human AChE expressed in HEK293 cells using varying levels of acetylthiocholine iodide as substrate pretreated for 5 mins followed by substrate addition measured after 5 mins by Lineweaver-burk plot analysis

Sequence of Acetylcholinesterase (Electrophorus electricus, UniProt O42275) (O42275 whole entry): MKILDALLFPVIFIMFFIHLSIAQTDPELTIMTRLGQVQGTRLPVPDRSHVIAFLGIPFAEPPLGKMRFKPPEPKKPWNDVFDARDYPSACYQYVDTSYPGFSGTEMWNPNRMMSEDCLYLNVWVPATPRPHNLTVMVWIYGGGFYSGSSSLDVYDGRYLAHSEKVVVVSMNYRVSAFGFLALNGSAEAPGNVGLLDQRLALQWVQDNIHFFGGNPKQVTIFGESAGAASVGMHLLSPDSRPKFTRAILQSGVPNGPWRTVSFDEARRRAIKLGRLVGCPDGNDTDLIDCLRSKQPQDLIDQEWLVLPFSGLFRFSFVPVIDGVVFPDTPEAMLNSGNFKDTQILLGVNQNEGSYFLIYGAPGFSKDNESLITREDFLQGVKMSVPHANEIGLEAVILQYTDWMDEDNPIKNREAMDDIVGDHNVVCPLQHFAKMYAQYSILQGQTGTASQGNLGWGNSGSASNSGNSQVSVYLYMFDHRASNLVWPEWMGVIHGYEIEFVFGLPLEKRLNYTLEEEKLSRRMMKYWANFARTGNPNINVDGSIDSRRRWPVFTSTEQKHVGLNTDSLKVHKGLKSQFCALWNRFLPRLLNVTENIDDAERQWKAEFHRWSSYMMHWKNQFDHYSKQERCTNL

Nc1c2c(nc3c1C(c1cccc(F)c1)c1ccc4cccnc4c1O3)CCCC2 (stereo not drawn)
IC50 [1]: 90 nM | IC50 [2]: Not Active | IC50 ([3]; read-out: IC50): 2200 nM

Nc1c2c(nc3c1C(c1ccncc1)c1ccc4cccnc4c1O3)CCCC2 (stereo not drawn)
IC50 [1]: 470 nM | IC50 [2]: Not Active | IC50 ([3]; hek293): Not Active

COc1cccc(C2c3ccc4cccnc4c3Oc3nc4c(c(N)c32)CCCC4)c1 (stereo not drawn)
Activity [4]: inactive | viability at 2 h, 30 µM [5]: 99% | viability at 2 h, 3 µM [6]: 83% | Activity [7]: inactive | IC50 [1]: 40 nM | viability at 2 h, 0.1 µM [8]: 89% | Activity [9]: inactive | IC50 ([2]; read-out: IC50): 1300 nM | IC50 ([3]; read-out: IC50): 750 nM | viability at 2 h, 10 µM [10]: 89% | viability at 2 h, 1 µM [11]: 84% | Activity [12]: inactive | Papp at 6 h, 100 µM [13]: 5.41 ×10⁻⁶ cm/s | viability at 2 h, 100 µM [14]: 89% | Ki [15]: 870 nM

Nc1c2c(nc3c1C(c1cccnc1Br)c1ccc4cccnc4c1O3)CCCC2 (stereo not drawn)
IC50 [1]: 190 nM | IC50 ([2]; read-out: IC50): 2860 nM | IC50 ([3]; hek293): Not Active

Nc1c2c(nc3c1C(c1ccccc1Br)c1ccc4cccnc4c1O3)CCCC2 (stereo not drawn)
IC50 [1]: 140 nM | IC50 ([2]; read-out: IC50): 210 nM

Nc1c2c(nc3c1C(c1ccc([N+](=O)[O-])cc1)c1ccc4cccnc4c1O3)CCCC2 (stereo not drawn)
IC50 [1]: 240 nM | IC50 [2]: Not Active

Cc1ccc(C2c3ccc4cccnc4c3Oc3nc4c(c(N)c32)CCCC4)cc1 (stereo not drawn)
IC50 [1]: 40 nM | IC50 ([2]; read-out: IC50): 530 nM | IC50 ([3]; read-out: IC50): 2850 nM

COc1ccccc1C1c2ccc3cccnc3c2Oc2nc3c(c(N)c21)CCCC3 (stereo not drawn)
IC50 [1]: 80 nM | IC50 ([2]; read-out: IC50): 1510 nM

Nc1c2c(nc3c1C(c1c(Cl)cccc1Cl)c1ccc4cccnc4c1O3)CCCC2 (stereo not drawn)
IC50 [1]: 100 nM | IC50 [2]: Not Active

Nc1c2c(nc3c1C(c1ccccc1F)c1ccc4cccnc4c1O3)CCCC2 (stereo not drawn)
IC50 [1]: 110 nM | IC50 ([2]; read-out: IC50): 630 nM

COc1ccc(C2c3ccc4cccnc4c3Oc3nc4c(c(N)c32)CCCC4)cc1 (stereo not drawn)
IC50 [1]: 40 nM | IC50 ([2]; read-out: IC50): 1300 nM | IC50 ([3]; read-out: IC50): 1510 nM

Nc1c2c(nc3c1C(c1ccccc1)c1ccc4cccnc4c1O3)CCCC2 (stereo not drawn)
IC50 [1]: 60 nM | IC50 ([2]; read-out: IC50): 1110 nM | IC50 ([3]; read-out: IC50): 1730 nM
